Results taken from patent US20130079345A1, “[…] ACTIVE DISUBSTITUTED TRIAZINE DERIVATIVES” (BAYER INTELLECTUAL PROPERTY GMBH, priority 2010, published 2013).

Key:
CDK9/CycT1 = target: T1, CDK9/CycT1 (Homo sapiens, UniProt P50750); experiment: CDK9/CycT1 kinase assay (TR-FRET); type: biochemical; conditions: ATP 10 μM
T1 construct: Recombinant full-length His-tagged human CDK9 and CycT1; His; purchased Invitrogen PV4131; host or cells: insect cells
Text: CDK9/CycT1-inhibitory activity of compounds of the present invention was quantified employing the CDK9/CycT1 TR-FRET assay as described in the following paragraphs.
Recombinant full-length His-tagged human CDK9 and CycT1, expressed in insect cells and purified by Ni-NTA affinity chromatography, were purchased from Invitrogen (catalogue number PV4131). A biotinylated peptide biotin-Ttds-[…] (C-terminus in amide form), which can be purchased from e.g the company JERINI Peptide Technologies (Berlin, Germany), was used as a substrate for the kinase reaction.
(§1) For the assay, 50 nl of a 100-fold concentrated solution of the test compound in DMSO was pipetted into a well of a black low-volume 384-well microtiter plate (Greiner Bio-One, Frickenhausen, Germany), 2 μl of a solution of CDK9/CycT1 in aqueous assay buffer [50 mM Tris/HCl pH 8.0], 10 mM MgCl2, 1.0 mM dithiothreitol, 0.1 mM sodium ortho-vanadate, 0.01% (v/v) Nonidet-P40 (Sigma)] were added. The mixture was incubated at 22° C. for 15 min to allow pre-binding of the test compounds to the enzyme before the start of the kinase reaction. […] The resulting mixture was incubated at 22° C. for a reaction time of 25 minutes. The concentration of CDK9/CycT1 was adjusted depending of the activity of the enzyme lot and was chosen appropriately for measurements in the linear range of the assay. Typical concentrations were in the range of 1 μg/ml. The reaction was stopped by the addition of 5 μl of a solution of TR-FRET detection reagents (0.2 μM streptavidine-XL and 1 nM anti-RB(pSer807/pSer811)-antibody from BD Pharmingen [#558389] and 1.2 nM LANCE EU-W1024 labeled anti-mouse IgG antibody [Perkin-Elmer, product no. AD0077]) in an aqueous EDTA-solution (100 mM EDTA, 0.2% (w/v) bovine serum albumin in 100 mM HEPES/NaOH, pH 7.0).
(§2) The resulting mixture was incubated at 22° C. for one hour to allow the formation of a complex between the phosphorylated biotinylated peptide and the detection reagents. Subsequently, the amount of phosphorylated substrate was evaluated by measurement of the resonance energy transfer from the Eu-chelate to the streptavidine-XL. Therefore, the fluorescence emissions at 620 nm and 665 nm after excitation at 350 nm were measured in a HTRF reader, e.g. a Rubystar (BMG Labtechnologies, Offenburg, Germany) or a Viewlux (Perkin-Elmer). The ratio of the emissions at 665 nm and at […] was taken as a measure for the amounts of phosphorylated substrate. The data were normalised, i.e. enzyme reaction without inhibitor corresponds to 0% inhibition, and all other assay components in the absence of the enzyme correspond to 100% inhibition. IC50 values were calculated by a 4-parameter fit using in-house software.

CDK2/CycE = target: T2, CDK2/CycE (Homo sapiens, UniProt P24941); experiment: CDK2/CycE kinase assay (TR-FRET); type: biochemical; conditions: ATP 10 μM
T2 construct: GST; purchased ProQinase GmbH (Freiburg, Germany); host or cells: insect cells (Sf-9)
Text: CDK2/CycE-inhibitory activity of compounds of the present invention was quantified employing the CDK2/CycE TR-FRET assay as described in the following paragraphs.
Recombinant fusion proteins of glutathione S-transferase (GST) and human CDK2 and of GST and human CycE, expressed in insect cells (Sf-9) and purified by glutathion-sepharose affinity chromatography, were purchased from ProQinase GmbH (Freiburg, Germany). A biotinylated peptide biotin-Ttds-[…] (C-terminus in amide form), which can be purchased from e.g the company JERINI Peptide Technologies (Berlin, Germany), was used as a substrate for the kinase reaction.
as §1, with “of CDK2/CycE” for “of CDK9/CycT1”, “for” for “for a reaction time of”, “depending on” for “depending of”, “of 130 ng/ml.” for “of 1 μg/ml.”
as §2, with “measuring” for “measurement of”, “high time-resolved fluorometry (HTRF)” for “HTRF”

T1 sequence (P50750 whole entry): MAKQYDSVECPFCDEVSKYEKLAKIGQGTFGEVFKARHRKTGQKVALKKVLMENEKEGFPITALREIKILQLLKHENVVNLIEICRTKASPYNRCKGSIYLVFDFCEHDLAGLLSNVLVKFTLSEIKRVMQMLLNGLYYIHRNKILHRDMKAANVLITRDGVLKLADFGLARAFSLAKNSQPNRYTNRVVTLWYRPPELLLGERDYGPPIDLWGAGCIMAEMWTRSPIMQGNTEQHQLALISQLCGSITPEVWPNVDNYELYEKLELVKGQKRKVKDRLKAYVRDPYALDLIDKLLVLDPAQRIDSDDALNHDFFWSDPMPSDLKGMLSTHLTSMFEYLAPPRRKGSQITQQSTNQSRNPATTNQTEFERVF
T1 sequence (O60563 whole entry partner): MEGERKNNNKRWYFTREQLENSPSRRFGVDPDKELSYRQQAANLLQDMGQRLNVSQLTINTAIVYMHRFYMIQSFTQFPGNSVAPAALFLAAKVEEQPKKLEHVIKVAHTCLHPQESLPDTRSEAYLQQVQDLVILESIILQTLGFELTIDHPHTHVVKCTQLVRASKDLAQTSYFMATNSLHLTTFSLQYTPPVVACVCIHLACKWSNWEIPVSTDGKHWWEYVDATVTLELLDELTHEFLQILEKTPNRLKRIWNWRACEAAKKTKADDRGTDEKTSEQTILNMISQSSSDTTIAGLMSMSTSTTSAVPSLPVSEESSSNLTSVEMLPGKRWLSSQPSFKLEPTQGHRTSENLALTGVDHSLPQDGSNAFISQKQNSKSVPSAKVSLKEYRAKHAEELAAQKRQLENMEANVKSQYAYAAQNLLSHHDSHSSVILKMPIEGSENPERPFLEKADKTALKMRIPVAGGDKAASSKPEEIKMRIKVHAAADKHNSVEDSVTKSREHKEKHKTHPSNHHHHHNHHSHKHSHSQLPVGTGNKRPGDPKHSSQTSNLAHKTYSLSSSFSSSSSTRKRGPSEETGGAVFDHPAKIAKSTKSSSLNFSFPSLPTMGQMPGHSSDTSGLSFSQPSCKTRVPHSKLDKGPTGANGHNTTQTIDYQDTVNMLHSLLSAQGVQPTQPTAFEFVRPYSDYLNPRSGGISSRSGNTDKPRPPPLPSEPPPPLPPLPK

Structure (SMILES)	IC50 (CDK9/CycT1; values in nM) [nM]	IC50 (CDK2/CycE; values in nM) [nM]	IC50 (CDK9/CycT1; values given in μM) [nM]	IC50 (CDK2/CycE; values given in μM) [nM]
COc1ccccc1-c1ncnc(Nc2cccc(S(N)(=O)=O)c2)n1 [Compound C1, 3-[(4-(2-Methoxyphenyl)-1,3,5-triazin-2-yl)amino]benzenesulfonamide]	10	450	–	–
Cc1ccc(Cl)cc1-c1ncnc(Nc2ccc(Cl)cc2)n1 [Ref3, [6-(5-Chloro-2-methyl-phenyl)-[1,3,5]triazin-4-yl]-(4-chloro-phenyl)-amine, reference compound]	–	–	> 20000	> 20000
NC(=O)c1ccc(Nc2ncnc(-c3ccccc3NC(=O)c3ccccc3)n2)cc1 [Ref5, 4-[4-(2-Benzoylaminophenyl)-[1,3,5]triazin-2-ylamino]benzamide, reference compound]	–	–	8400	14000

The remaining lines, values ahead:

IC50 (CDK9/CycT1; values in nM) [nM]	IC50 (CDK2/CycE; values in nM) [nM]	IC50 (CDK9/CycT1; values given in μM) [nM]	IC50 (CDK2/CycE; values given in μM) [nM]	Structure (SMILES)
–	–	15000	15000	NS(=O)(=O)Cc1cccc(Nc2ncnc(-c3ccc(F)cc3C(F)(F)F)n2)c1 [Compound U1, 1-[3-({4-[4-fluoro-2-(trifluoromethyl)phenyl]-1,3,5-triazin-2-yl}amino)phenyl]methanesulfonamide]
–	–	3600	3000	CC(=O)Nc1cc(F)ccc1-c1ncnc(Nc2cccc(CS(N)(=O)=O)c2)n1 [Compound U4, N-[5-fluoro-2-(4-{[3-(sulfamoylmethyl)phenyl]amino}-1,3,5-triazin-2-yl)phenyl]acetamide]
34	–	–	1600	NS(=O)(=O)Cc1cccc(Nc2ncnc(-c3ccc(F)cc3OCC3CC3)n2)c1 [Compound U5, 1-[3-({4-[2-(cyclopropylmethoxy)-4-fluorophenyl]-1,3,5-triazin-2-yl}amino)phenyl]methanesulfonamide]
370	–	–	12000	COc1c(-c2ncnc(Nc3cccc(CS(N)(=O)=O)c3)n2)ccc(F)c1F [Compound U6, 1-(3-{[4-(3,4-difluoro-2-methoxyphenyl)-1,3,5-triazin-2-yl]amino}phenyl)methanesulfonamide]
